The structures appear in SMILES notation.

The first experiment has as its target SYK kinase (Homo sapiens, UniProt P43405). Kind of experiment: SYK kinase assay (HTRF KinEASE-TK). It counts as biochemical. To be noted: class symbols, read-out: Syk inhibition IC50. As for the experimental part: A homogeneous time-resolved fluorescence (HTRF) assay was performed to assess the potential inhibitory effect of compounds on SYK kinase. The HTRF KinEASE-TK kit (Cisbio) was used. During the step, kinase will phosphorylate the substrate, and the resulting fluorescence signal is proportional to the phosphorylation level. The assay was performed in the following steps: First, the testing compounds were diluted 1:3 in succession in DMSO. The 1× kinase buffer contained 1 volume of 5× enzymatic buffer with 4 volumes of distilled water, 5 mM MgCl2, 1 mM MnCl2, and 1 mM DTT. The assays were assembled in 384 well plates (784075, Greiner) where 10 nl of compound solutions were added into each well, and the plates were centrifuged at 1000 g for 1 min. Then, 5 μl of 2×SYK in 1× kinase buffer were added to each well. The plates were centrifuged at 1000 g for 30 s and then incubated at room temperature for 10 min. The reaction was initiated by adding […] of premixed 2×TK-substrate-biotin and ATP mixture in 1× kinase buffer to the assay plates. The plates were centrifuged at 1000 g for 30 s and incubated at room temperature for 30 min. Phosphorylation was detected by adding 5 μl of 4×Sa-XL 665 in HTRF detection buffer into each well of the assay plates. The plates were centrifuged plates at 1000 g for 30 sec, and then incubated at room temperature for 1 h. Finally, the plates were read on an Envision 2104 plate reader (PerkinElmer) and the fluorescence signal was measured at 615 nm (Cryptate) and 665 nm (XL665).
A ratio (665/615 nm) was calculated for each well. The inhibition ratio was calculated as follow: […]
IC50 was calculated by fitting % Inhibition values and log of compound concentrations to nonlinear regression (dose response−variable slope) with GraphPad 6.0.
Take `CCS(=O)(=O)N1CCN(c2ccc(Nc3nc(-c4ccc5cn[nH]c5c4)cn4ncnc34)cc2OC)CC1` [I13, N-(4-(4-(ethylsulfonyl)piperazin-1-yl)-3-methoxyphenyl)-6-(1H-indazol-6-yl)-[1,2,4]triazolo[1,5-a]pyrazin-8-amine]: the IC50 (commonly the concentration that inhibits the measured activity by half) is no more than 50 nM.

On to `COc1cc(Nc2nc(-c3ccc4cn[nH]c4c3)cn3ncnc23)cc(OC)c1OC` [I4, 6-(1H-indazol-6-yl)-N-(3,4,5-trimethoxyphenyl)-[1,2,4]triazolo[1,5-a]pyrazin-8-amine], for which the IC50 lay in the range of 50 to 500 nM. Still for that read-out and setting: next, `CC(C)N1C[C@@H]2C[C@@H]1CN2c1ccc(Nc2nc(-c3ccc4cn[nH]c4c3)cn3ncnc23)cc1` [I71, 6-(1H-indazol-6-yl)-N-(4-((1S,4R)-5-isopropyl-2,5-diazabicyclo[2.2.1]heptan-2-yl)phenyl)-[1,2,4]triazolo[1,5-a]pyrazin-8-amine]: 50 to 500 nM; `c1cc(N2CCOCC2)ccc1Nc1nc(-c2ccc3[nH]ncc3c2)cn2cnnc12` [I65, 6-(1H-indazol-5-yl)-N-(4-morpholinophenyl)-[1,2,4]triazolo[4,3-a]pyrazin-8-amine]: greater than 5000 nM; `Cc1cc(Nc2nc(-c3ccc4cn[nH]c4c3)cn3cnnc23)ccc1N1CCOCC1` [I42, 6-(1H-indazol-6-yl)-N-(3-methyl-4-morpholinophenyl)-[1,2,4]triazolo[4,3-a]pyrazin-8-amine]: greater than 5000 nM. The same measure, in the same setting: next, `CCS(=O)(=O)N1CCN(c2ccc(Nc3nc(-c4ccc5cn[nH]c5c4)cn4ncnc34)cc2)CC1` [I14, N-(4-(4-(ethylsulfonyl)piperazin-1-yl)phenyl)-6-(1H-indazol-6-yl)-[1,2,4]triazolo[1,5-a]pyrazin-8-amine]: no more than 50 nM. `COc1cc(Nc2nc(-c3ccc4[nH]ccc4c3)cn3cnnc23)ccc1N1CCOCC1` [I68, 6-(1H-indol-5-yl)-N-(3-methoxy-4-morpholinophenyl)-[1,2,4]triazolo[4,3-a]pyrazin-8-amine]: the 50% inhibitory concentration (IC50) was greater than 5000 nM. Same read-out and setting: then `NC(=O)c1cccc(-c2cn3ncnc3c(Nc3ccc(N4CCOCC4)cc3)n2)c1` [I6, 3-(8-((4-morpholinophenyl)amino)-[1,2,4]triazolo[1,5-a]pyrazin-6-yl)benzamide], with 50 to 500 nM; and `COc1ccc(Nc2nc(-c3cnc4c(c3)OCC(=O)N4)cn3ncnc23)cc1OC` [I36, 7-(8-((3,4-dimethoxyphenyl)amino)-[1,2,4]triazolo[1,5-a]pyrazin-6-yl)-2H-pyrido[3,2-b][1,4]oxazin-3(4H)-one], with 50 to 500 nM; and `COc1cc(Nc2nc(-c3cnc4c(c3)OCC(=O)N4)cn3ncnc23)cc(OC)c1OC` [I34, 7-(8-((3,4,5-trimethoxyphenyl)amino)-[1,2,4]triazolo[1,5-a]pyrazin-6-yl)-2H-pyrido[3,2-b][1,4]oxazin-3(4H)-one], with greater than 5000 nM.

On to `c1nc2c(Nc3ccc(N4CCOCC4)c(OC4CC4)c3)nc(-c3ccc4cn[nH]c4c3)cn2n1` [I74, N-(3-cyclopropoxy-4-morpholinophenyl)-6-(1H-indazol-6-yl)-[1,2,4]triazolo[1,5-a]pyrazin-8-amine], for which the half-maximal inhibitory concentration (IC50) was 50 to 500 nM. Same read-out and setting: then `CC1(C)Oc2cc(-c3cn4ncnc4c(Nc4ccc(N5CCOCC5)cc4)n3)cnc2NC1=O` [I33, 2,2-dimethyl-7-(8-((4-morpholinophenyl)amino)-[1,2,4]triazolo[1,5-a]pyrazin-6-yl)-2H-pyrido[3,2-b][1,4]oxazin-3(4H)-one], with 50 to 500 nM; and `O=C1COc2cc(-c3cn4ncnc4c(Nc4ccc5c(c4)OC(F)(F)O5)n3)cnc2N1` [I38, 7-(8-((2,2-difluorobenzo[d][1,3]dioxol-5-yl)amino)-[1,2,4]triazolo[1,5-a]pyrazin-6-yl)-2H-pyrido[3,2-b][1,4]oxazin-3(4H)-one], with greater than 5000 nM; and `CC1(C)Oc2cc(-c3cn4ncnc4c(Nc4ccc5c(c4)OC(F)(F)O5)n3)cnc2NC1=O` [I39, 7-(8-((2,2-difluorobenzo[d][1,3]dioxol-5-yl)amino)-[1,2,4]triazolo[1,5-a]pyrazin-6-yl)-2,2-dimethyl-2H-pyrido[3,2-b][1,4]oxazin-3(4H)-one], with greater than 5000 nM. On the same count and under the same terms, then `CC1(C)Oc2cc(-c3cn4ncnc4c(Nc4ccc(N5CCOCC5)cc4)n3)ccc2NC1=O` [I27, 2,2-dimethyl-7-(8-((4-morpholinophenyl)amino)-[1,2,4]triazolo[1,5-a]pyrazin-6-yl)-2H-benzo[b][1,4]oxazin-3(4H)-one], with 50 to 500 nM. For `COc1cc(Nc2nc(-c3ccc4cn[nH]c4c3)cn3ncnc23)ccc1N1CCN(CC(F)(F)F)CC1` [I8, 6-(1H-indazol-6-yl)-N-(3-methoxy-4-(4-(2,2,2-trifluoroethyl)piperazin-1-yl)phenyl)-[1,2,4]triazolo[1,5-a]pyrazin-8-amine], the IC50 is no more than 50 nM. On the same count and under the same terms, next, `O=C1COc2cc(-c3cn4ncnc4c(Nc4ccc(N5CCOCC5)cc4)n3)cnc2N1` [I31, 7-(8-((4-morpholinophenyl)amino)-[1,2,4]triazolo[1,5-a]pyrazin-6-yl)-2H-pyrido[3,2-b][1,4]oxazin-3(4H)-one]: 50 to 500 nM; `COc1cc(Nc2nc(-c3ccc4c(C)c[nH]c4c3)cn3cnnc23)ccc1N1CCOCC1` [I47, N-(3-methoxy-4-morpholinophenyl)-6-(3-methyl-1H-indol-6-yl)-[1,2,4]triazolo[4,3-a]pyrazin-8-amine]: 500 to 5000 nM. The same measure, in the same setting: next, `Fc1cc(Nc2nc(-c3ccc4cn[nH]c4c3)cn3cnnc23)ccc1N1CCOCC1` [I40, N-(3-fluoro-4-morpholinophenyl)-6-(1H-indazol-6-yl)-[1,2,4]triazolo[4,3-a]pyrazin-8-amine]: greater than 5000 nM. The same measure, in the same setting: next, `COc1cc(Nc2nc(-c3ccc4c(C)n[nH]c4c3)cn3cnnc23)ccc1N1CCOCC1` [I46, N-(3-methoxy-4-morpholinophenyl)-6-(3-methyl-1H-indazol-6-yl)-[1,2,4]triazolo[4,3-a]pyrazin-8-amine]: 500 to 5000 nM. Take `COc1cc(Nc2nc(-c3ccc4[nH]ncc4c3)cn3cnnc23)ccc1N1CCOCC1` [I67, 6-(1H-indazol-5-yl)-N-(3-methoxy-4-morpholinophenyl)-[1,2,4]triazolo[4,3-a]pyrazin-8-amine]: the IC50 is 500 to 5000 nM. With `COc1cc(Nc2nc(-c3cnc4c(c3)OC(C)(C)C(=O)N4)cn3ncnc23)ccc1N1CCOCC1` [I32, 7-(8-((3-methoxy-4-morpholinophenyl)amino)-[1,2,4]triazolo[1,5-a]pyrazin-6-yl)-2,2-dimethyl-2H-pyrido[3,2-b][1,4]oxazin-3(4H)-one], the half-inhibitory concentration (IC50) is 50 to 500 nM. On the same count and under the same terms, then `c1nc2c(Nc3ccc(N4CCC5(COC5)C4)cc3)nc(-c3ccc4cn[nH]c4c3)cn2n1` [I63, N-(4-(2-oxa-6-azaspiro[3.4]octan-6-yl)phenyl)-6-(1H-indazol-6-yl)-[1,2,4]triazolo[1,5-a]pyrazin-8-amine], with greater than 5000 nM.

`c1cc2cc(-c3cn4cnnc4c(Nc4ccc(N5CCOCC5)cc4)n3)ccc2[nH]1` [I66, 6-(1H-indol-5-yl)-N-(4-morpholinophenyl)-[1,2,4]triazolo[4,3-a]pyrazin-8-amine]: the 50% inhibitory concentration (IC50) is greater than 5000 nM.

The experiment is the same for the next values; noted with them: given as number, read-out: Syk inhibition IC50.
As to `c1cc(N2CCOCC2)ccc1Nc1nc(-c2ccc3cn[nH]c3c2)cn2cnnc12` [I48, 6-(1H-indazol-6-yl)-N-(4-morpholinophenyl)-[1,2,4]triazolo[4,3-a]pyrazin-8-amine], the half-maximal inhibitory concentration (IC50) is greater than 10000 nM.
